Laboratory results as given in PubChem BioAssay (NCI).
Where “and” joins values, the source holds several entries; their conditions need not be identical. Equal entries are not always repeated.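 Exposure lasted 48 hours, with cells grown in 96-well plates and compounds tested at five concentrations. GI50 = concentration required for 50% inhibition of growth. TGI is the concentration that stops growth completely.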

Experiments:
Experiment in all cases: NCI-60 cell line screen, 48 h
[1] = system: U251 CNS
[2] = system: K-562 leukemia
[3] = system: HCT-15 colon
[4] = system: TK-10 renal
[5] = system: HS 578T breast
[6] = system: SF-295 CNS
[7] = system: SK-MEL-5 melanoma
[8] = system: PC-3 prostate
[9] = system: OVCAR-5 ovarian
[10] = system: HT29 colon

CC(C)C(/C=C/c1ccc(Cl)c(Cl)c1)=N\NC(=O)N/N=C(/C=C/c1ccc(Cl)c(Cl)c1)C(C)C
TGI [1]: > 100 µM | TGI [2]: > 100 µM | TGI [3]: > 100 µM | TGI [4]: > 100 µM | TGI [5]: > 100 µM | TGI [6]: > 100 µM | TGI [7]: > 100 µM | TGI [8]: > 100 µM | TGI [9]: > 100 µM | TGI [10]: > 100 µM

O=[N+]([O-])c1cc2c(cc1/C=N/n1c(CO)nc3ccccc31)OCO2
TGI [1]: > 100 µM | TGI [2]: > 100 µM | TGI [3]: > 100 µM | TGI [4]: > 100 µM | TGI [5]: > 100 µM | TGI [6]: > 100 µM | TGI [7]: > 100 µM | TGI [8]: > 100 µM | TGI [9]: > 100 µM | TGI [10]: > 100 µM

CC[C@H]1C=CCC[C@@]2(C[C@@H]3CC[C@H]4[C@@H](C(=O)OCCCCCCCCCCCCCCCC(=O)N(CCCN)C[C@@H](O)CCN)[C@@]5(CCC[C@@H](C)O5)NC(=[N+]34)N2)O1
TGI [1]: 3.05 µM | TGI [2]: 3.18 µM | TGI [3]: > 10 µM | TGI [4]: 3.04 µM | TGI [5]: 3.4 µM | TGI [6]: 3.68 µM | TGI [7]: 2.87 µM | TGI [8]: 3.1 µM | TGI [9]: 3.22 µM | TGI [10]: 2.96 µM

CCCCCCCCCCCCCCCC(=O)N(CCCCCCCCCCC(=O)O)CC(O)C(O)C(OC1OC(CO)C(O)C(O)C1O)C(O)CO (stereo not given)
TGI [1]: 32.9 µM | TGI [2]: 41.4 µM | TGI [3]: > 100 µM | TGI [4]: > 100 µM | TGI [5]: > 100 µM | TGI [6]: 33.4 µM | TGI [7]: > 100 µM | TGI [8]: > 100 µM | TGI [9]: > 100 µM | TGI [10]: 42.8 µM

O=c1[nH]nc(Cc2ccccc2)n1CCO
TGI [1]: > 100 µM | TGI [2]: > 100 µM | TGI [3]: > 100 µM | TGI [4]: > 100 µM | TGI [5]: > 100 µM | TGI [6]: > 100 µM | TGI [7]: > 100 µM | TGI [8]: > 100 µM | TGI [9]: > 100 µM | TGI [10]: > 100 µM

CC1OC(OC2C(OC(=O)[C@]34CCC(C)(C)C[C@H]3C3=CC[C@@H]5[C@@]6(C)CC[C@H](OC7OC(C(=O)O)C(O)C(OC8OCC(O)C(O)C8O)C7O)C(C)(C)[C@@H]6CC[C@@]5(C)[C@]3(C)CC4)OCC(O)C2O)C(O)C(OC2OCC(O)C(O)C2O)C1OC1OCC(O)C(OC2OCC(O)C(O)C2O)C1O (stereo not given in full)
GI50 [1]: 10.9 µM and 24.2 µM | TGI [1]: 24.8 µM and 62 µM | GI50 [2]: 7.42 µM and 17.1 µM | TGI [2]: 21.4 µM and 33.6 µM | TGI [3]: 32.2 µM and 42.4 µM | TGI [4]: 24 µM | TGI [5]: 37.9 µM and 62.4 µM | GI50 [6]: 5.98 µM and 15.4 µM | TGI [6]: 18.9 µM and 30.2 µM | TGI [7]: 29.6 µM and 35 µM | TGI [8]: 21.7 µM and 23.1 µM | GI50 [9]: 7.26 µM and 17.7 µM | TGI [9]: 20.3 µM and 32.4 µM | GI50 [10]: 4.28 µM and 11.9 µM | TGI [10]: 15 µM and 24.2 µM

Cc1ccc(/C(O)=C/c2nc3ccccc3s/c2=N/CS(=O)(=O)c2ccc(C)cc2)cc1
TGI [1]: > 10 µM | TGI [2]: > 10 µM | TGI [3]: > 10 µM | TGI [4]: > 10 µM | TGI [5]: > 10 µM | TGI [6]: > 10 µM | TGI [7]: > 10 µM | TGI [8]: > 10 µM | TGI [9]: > 10 µM | TGI [10]: > 10 µM

CCOC(=O)C(Cc1cccn1C(=O)OC(C)(C)C)[N+](=O)[O-] (stereo not given)
TGI [1]: 50.9 µM | TGI [2]: 79.6 µM | TGI [3]: 62.3 µM | TGI [4]: 50.3 µM | TGI [5]: 75.9 µM | TGI [6]: 99.4 µM | TGI [7]: 37.9 µM | TGI [8]: 45.3 µM | TGI [9]: 63.2 µM | TGI [10]: 50.3 µM

O=C(O)Cc1ccc2[nH]c(O)c(C3=Nc4ccccc4C3=O)c2c1
TGI [1]: > 100 µM | TGI [2]: > 100 µM | TGI [3]: > 100 µM | TGI [4]: > 100 µM | TGI [5]: 77.5 µM | TGI [6]: > 100 µM | TGI [7]: 55.6 µM | TGI [8]: > 100 µM | TGI [9]: > 100 µM | TGI [10]: > 100 µM

CC1=C(C(=O)c2ccccc2)C23C(=O)N(c4ccccc4)C(=O)C2=C(O)C=CC3(O)N1 (stereo not given)
TGI [1]: 81.5 µM | TGI [2]: 75.1 µM | TGI [3]: > 100 µM | TGI [4]: > 100 µM | TGI [5]: > 100 µM | TGI [6]: > 100 µM | TGI [7]: 41.9 µM | TGI [8]: > 100 µM | TGI [9]: > 100 µM | TGI [10]: 32.3 µM

O=[N+]([O-])c1ccc(C=NCC2CCCN3CCCCC23)cc1 (stereo not given)
TGI [1]: > 100 µM | TGI [2]: > 100 µM | TGI [3]: > 100 µM | TGI [4]: > 100 µM | TGI [5]: > 100 µM | TGI [6]: > 100 µM | TGI [7]: > 100 µM | TGI [8]: > 100 µM | TGI [9]: > 100 µM | TGI [10]: 34.9 µM

CC1=Nc2sc3c(c2C2=NCCN12)CCCC3
TGI [1]: 70.7 µM | TGI [2]: > 100 µM | TGI [3]: > 100 µM | TGI [4]: > 100 µM | TGI [5]: 91.1 µM | TGI [6]: 98.7 µM | TGI [7]: 77.4 µM | TGI [8]: 65.9 µM | TGI [9]: 92 µM | TGI [10]: 36.5 µM

Clc1ccc(C2Nc3ccccc3C3=NCCN32)cc1 (stereo not given)
TGI [1]: 78.6 µM | TGI [2]: 46.2 µM | TGI [3]: > 100 µM | TGI [4]: 39.5 µM | TGI [5]: > 100 µM | TGI [6]: 35.4 µM | TGI [7]: 34.4 µM | TGI [8]: > 100 µM | TGI [9]: > 100 µM | TGI [10]: 38.5 µM

Nc1nn2c(nc(N)c3c(N)[nH]nc32)c1N=Nc1ccc(Br)cc1
TGI [1]: 30.7 µM | TGI [2]: > 100 µM | TGI [3]: > 100 µM | TGI [4]: > 100 µM | TGI [5]: > 100 µM | TGI [6]: > 100 µM | TGI [7]: > 100 µM | TGI [8]: > 100 µM | TGI [9]: > 96.2 µM | TGI [10]: > 100 µM

O=C(O)CC1NCc2cc3ccccc3nc21 (stereo not given)
TGI [1]: > 100 µM | TGI [2]: > 100 µM | TGI [3]: > 100 µM | TGI [4]: > 100 µM | TGI [5]: > 100 µM | TGI [6]: > 100 µM | TGI [7]: > 100 µM | TGI [8]: > 100 µM | TGI [9]: > 100 µM | TGI [10]: > 100 µM
